Assay results reported in article PMC12124432, “Antimicrobial Peptide‐Peptoid Macrocycles from the Polymyxin B2 Chemical Space” (Angewandte Chemie (International Ed. in English), 2025).
In brackets after ≈: the same amount, converted by molar mass. Numbered stars: 1 amine (or outer) side, 2 acyl side, 3 side chain; on linkers, the order of the positions; unused ones are H or OH. Bridge positions count the residues as written; N and C are the ends. Square brackets hold non-standard residues; d marks the D form. Peptide text beside a SMILES is read from it. * marks the point of attachment. NGly(CH2(3-pyridyl)) = O=C(O)CNCc1cccnc1; Propanoyl(3-cHex) = O=C(CCC1CCCCC1)*; Propanoyl(3-cPent) = O=C(CCC1CCCC1)*; Gly(NCH2CH2Ph) = O=C(O)CNCCc1ccccc1; Cyclopentylacetyl = O=C(CC1CCCC1)*; Gly(N-2-aminoethyl) = NCCNCC(=O)O; X1 = O=C(CN(Cc1ccccn1)[*:1])[*:2]; Pentanoyl(4-Me) = CC(C)CCC(=O)*; Gly(N(CH2)3NH2) = NCCCNCC(=O)O; Gly(N-cHex) = O=C(O)CNC1CCCCC1; Gly(N-CH2CH2OH) = O=C(O)CNCCO; N(iPr)Gly = CC(C)NCC(=O)O; Heptanoyl = CCCCCCC(=O)*; NHexGly = CCCCCCNCC(=O)O; Nphe = O=C(O)CNCc1ccccc1; Octanoyl = CCCCCCCC(=O)*; Dab = NCC[C@H](N)C(=O)O; Pentanoyl = CCCCC(=O)*; Nleu = CC(C)CNCC(=O)O; NPrGly = CCCNCC(=O)O; Nlys = NCCCCNCC(=O)O

Key:
E. coli W3110 = assay type: cell-based, Escherichia coli; settings: W3110, pH 8.5
Procedure: (§1) Minimal Inhibitory Concentration (MIC)
(§2) Antimicrobial activity was assayed for all the peptide-peptoids against P. aeruginosa PAO1, K. pneumoniae NCTC418, E. coli W3110, A. baumannii ATCC 19606, methicillin-resistant S. aureus COL (MRSA) and for selected peptides on P. aeruginosa PA14, as well as the clinical isolates ZEM-1A and ZEM9A, K. pneumoniae OXA-48, Enterobacter cloacae, Stenotrophomonas maltophilia and Staphylococus epidermidis. To determine the Minimal Inhibitory Concentration (MIC), Broth Microdilution method was used. A colony of bacteria was picked and grown in LB medium overnight at 37 °C. The next day, the culture was then regrown in LB medium to log phase (OD600 = 0.6 to 0.8), which lasted approximately 4 hours, and diluted to an OD600 of 0.022 in the desired medium (full MH or 12.5% MH).
(§3) The compounds were prepared as stock solutions of 2 mg/mL in sterilized MilliQ deionized water and then diluted in the desired media (full MH or 12.5% MH) to reach the first concentration tested (32 μg/mL). The compounds were added to the first well of a 96-well sterile, round bottom microtiter plates in polystyrene (TPP®, untreated) and diluted serially by ½ in the desired media (full MH or 12.5% MH), to a final volume of 150 µL/well. To each well was finally added 4 µL of the diluted bacterial suspension (see above), corresponding to approximately 5×10^5 CFU. For each test, two columns of the plate were kept for sterility control (medium only), growth control (medium with bacterial inoculum, no compound). The positive control, Polymyxin B (starting with a concentration of 16 µg/mL) in MH medium with bacterial inoculums, was introduced in the two first lines of the plate. The plates were incubated at 37 °C for ca. 18 hours under static conditions. 15 µL of 3-(4,5-dimethylthiazol-2-yl)-2,5-diphenyltetrazolium bromide (MTT)[7] (1 mg/mL in sterilized MilliQ deionized water) were added to each well and the plates were incubated for 20-30 minutes at room temperature. The […]
(§4) minimal inhibitory concentration (MIC) was defined as the lowest concentration of the compound that inhibits the visible growth of the tested bacteria (yellow) with the unaided eye.
(§5) Minimal Hemolytic Concentration (MHC) […]
(§6) 11. Minimal inhibitory in presence of salt
(§7) The same procedure as for the antibacterial activity measurements by minimal inhibitory concentration assay (MIC) was applied. The media, 12.5% Mueller-Hinton broth was this time supplemented with different salt concentrations (0, 100, 200 300 mM NaCl). […]
(§8) All data, in μg/mL, measured against P. aeruginosa PAO1, with or without addition of salt (NaCl). The values were measured in dilute medium (12.5% MH) and at slightly basic pH (pH = 8.5), after incubation for 16-20 h at 37 °C. Values represent two different duplicate MIC determinations.

P. aeruginosa PAO1 = assay type: cell-based, Pseudomonas aeruginosa; settings: PAO1, pH 8.5
Procedure: as §1, §2, §3, §4, §5, §6
as §7, with “NaCl). The MIC activities were then determined against Pseudomonas aeruginosa PAO1 and Escherichia coli” for “NaCl).”
Table S6. Minimal inhibitory concentration (MIC) on P. aeruginosa PAO1 as function of salt […]
as §8

| Compound | MIC on E. coli, 0 mM NaCl (E. coli W3110) [µg/mL] | MIC on E. coli, 100 mM NaCl (E. coli W3110) [µg/mL] | MIC on E. coli, 200 mM NaCl (E. coli W3110) [µg/mL] | MIC on E. coli, 300 mM NaCl (E. coli W3110) [µg/mL] | MIC on P. aeruginosa, 0 mM NaCl (P. aeruginosa PAO1) [µg/mL] | MIC on P. aeruginosa, 100 mM NaCl (P. aeruginosa PAO1) [µg/mL] | MIC on P. aeruginosa, 200 mM NaCl (P. aeruginosa PAO1) [µg/mL] | MIC on P. aeruginosa, 300 mM NaCl (P. aeruginosa PAO1) [µg/mL] |
| --- | --- | --- | --- | --- | --- | --- | --- | --- |
| CC(C)C[C@H](NC(=O)CN(CC(C)C)C(=O)[C@H](CC(C)C)NC(=O)CN(CCCCN)C(=O)[C@H](CC(C)C)NC(=O)CN(CC(C)C)C(=O)[C@H](CCCCN)NC(=O)CN(CC(C)C)C(=O)[C@H](CC(C)C)NC(=O)CN(CCCCN)C(=O)[C@@H](N)CCCCN)C(N)=O [EB9, reference compound] (H-K[Nlys]L[Nleu]K[Nleu]L[Nlys]L[Nleu]L-NH2) | 2 (≈ 1.51 µM) | 16 (≈ 12.1 µM) | 64 (≈ 48.4 µM) | > 64 | 2 (≈ 1.51 µM) | 32 (≈ 24.2 µM) | > 64 | > 64 |
| CCCCCCCC(=O)N(CCN)CC(=O)N[C@@H](Cc1ccc(O)cc1)C(=O)N[C@@H](CCCCN)C(=O)N[C@H]1CCNC(=O)[C@H](CCCCN)NC(=O)CN(CCN)C(=O)[C@H](CCCNC(=N)N)NC(=O)[C@H](CCCCN)NC1=O [EB14] (Octanoyl-[Gly(N-2-aminoethyl)]YK[Dab]KR[Gly(N-2-aminoethyl)]K; lactam 4-C) | 1 (≈ 0.885 µM) | 16 (≈ 14.2 µM) | 64 (≈ 56.6 µM) | > 64 | 4 (≈ 3.54 µM) | > 64 | > 64 | > 64 |
| CCCCCCCC(=O)N(CC(=O)N(CCN)CC(=O)N[C@@H](CCC(N)=O)C(=O)N[C@H]1CCNC(=O)[C@H](CCCCN)NC(=O)[C@H](CCCCN)NC(=O)CN(CCCCN)C(=O)[C@H](CCCCN)NC1=O)Cc1ccccn1 [EB16] (Octanoyl-[X1][Gly(N-2-aminoethyl)]Q[Dab]K[Nlys]KK; lactam 4-C) | 0.5 (≈ 0.448 µM) | 32 (≈ 28.7 µM) | > 64 | > 64 | 4 (≈ 3.59 µM) | > 64 | > 64 | > 64 |
| CC(C)[C@@H]1NC(=O)[C@H](CCCCN)NC(=O)CN(CCN)C(=O)[C@H](CC(N)=O)NC(=O)[C@@H](NC(=O)CN(CCN)C(=O)[C@H](CCCCN)NC(=O)CN(CCc2ccccc2)C(=O)CC2CCCC2)CCNC(=O)[C@H](CCCCN)NC1=O [EB20] (Cyclopentylacetyl-[Gly(NCH2CH2Ph)]K[Gly(N-2-aminoethyl)][Dab]N[Gly(N-2-aminoethyl)]KVK; lactam 4-C; N-terminus assumed) | 1 (≈ 0.855 µM) | 64 (≈ 54.7 µM) | > 64 | > 64 | 16 (≈ 13.7 µM) | > 64 | > 64 | > 64 |
| CCCCCCN(CC(=O)N[C@H]1CCNC(=O)[C@H](CCCCN)NC(=O)CN(CCN)C(=O)CN(CCN)C(=O)[C@H](CCCCN)NC(=O)[C@H](CC(N)=O)NC(=O)[C@H](CCCCN)NC1=O)C(=O)[C@H](CCCCN)NC(=O)CN(Cc1ccccc1)C(=O)CCCC [EB22] (Pentanoyl-[Nphe]K[NHexGly][Dab]KNK[Gly(N-2-aminoethyl)][Gly(N-2-aminoethyl)]K; lactam 4-C) | 1 (≈ 0.769 µM) | 16 (≈ 12.3 µM) | > 64 | > 64 | 4 (≈ 3.08 µM) | > 64 | > 64 | > 64 |
| CCCCCCC(=O)N(CC(=O)N(CCCN)CC(=O)N(CCN)CC(=O)N[C@H]1CCNC(=O)[C@H](CCCCN)NC(=O)CN(C2CCCCC2)C(=O)CN(CCN)C(=O)[C@H](CCC(N)=O)NC(=O)[C@H](CCCNC(=N)N)NC1=O)Cc1ccccc1 [EB23] (Heptanoyl-[Nphe][Gly(N(CH2)3NH2)][Gly(N-2-aminoethyl)][Dab]RQ[Gly(N-2-aminoethyl)][Gly(N-cHex)]K; lactam 4-C) | 2 (≈ 1.63 µM) | > 64 | > 64 | > 64 | 16 (≈ 13.1 µM) | > 64 | > 64 | > 64 |
| CCCN1CC(=O)N[C@@H](CC(N)=O)C(=O)N[C@@H](CCCCN)C(=O)N(CCCN)CC(=O)N[C@@H](CCCCN)C(=O)NCC[C@H](NC(=O)[C@H](CCCNC(=N)N)NC(=O)CNC(=O)CN(CCc2ccccc2)C(=O)CCC(C)C)C1=O [EB26] ({Pentanoyl(4-Me)}-[Gly(NCH2CH2Ph)]GR[Dab][NPrGly]NK[Gly(N(CH2)3NH2)]K; lactam 4-C) | 4 (≈ 3.46 µM) | 16 (≈ 13.8 µM) | > 64 | > 64 | 16 (≈ 13.8 µM) | > 64 | > 64 | > 64 |
| NCCCC[C@@H]1NC(=O)CN(CCO)C(=O)[C@@H]2CCCN2C(=O)CN(CCCN)C(=O)[C@@H](NC(=O)[C@H](CC(N)=O)NC(=O)[C@H](CCCCN)NC(=O)[C@H](CCCCN)NC(=O)CN(Cc2ccccc2)C(=O)CCC2CCCC2)CCNC1=O [EB32] ({Propanoyl(3-cPent)}-[Nphe]KKN[Dab][Gly(N(CH2)3NH2)]P[Gly(N-CH2CH2OH)]K; lactam 5-C) | 4 (≈ 3.38 µM) | > 64 | > 64 | > 64 | 32 (≈ 27.1 µM) | > 64 | > 64 | > 64 |
| CCCCCCCC(=O)N(CC(=O)N(CCCN)CC(=O)N[C@@H](CCC(N)=O)C(=O)N[C@H]1CCNC(=O)[C@H](CCCCN)NC(=O)[C@H](CCCCN)NC(=O)[C@H](CCC(N)=O)NC(=O)CN(CCCCN)C1=O)Cc1cccnc1 [EB34] (Octanoyl-[NGly(CH2(3-pyridyl))][Gly(N(CH2)3NH2)]Q[Dab][Nlys]QKK; lactam 4-C) | 8 (≈ 7.08 µM) | > 64 | > 64 | > 64 | 32 (≈ 28.3 µM) | > 64 | > 64 | > 64 |
| CC(C)N(CC(=O)N[C@@H](CC(N)=O)C(=O)N[C@H]1CCNC(=O)[C@H](CCCCN)NC(=O)[C@H](CC(N)=O)NC(=O)CN(CCCCN)C(=O)[C@H](CCCCN)NC(=O)[C@H](CO)NC1=O)C(=O)CN(Cc1ccccc1)C(=O)CCC1CCCCC1 [EB36] ({Propanoyl(3-cHex)}-[Nphe][N(iPr)Gly]N[Dab]SK[Nlys]NK; lactam 4-C) | 16 to 32 | > 64 | > 64 | > 64 | 32 (≈ 27 µM) | > 64 | > 64 | > 64 |
